# Reference: patent EP4813383A1, “USE OF TAFAMIDIS AND PHARMACEUTICALLY ACCEPTABLE SALT THEREOF IN PREVENTION, ALLEVIATION, OR TREATMENT OF DISEASES ASSOCIATED WITH HIF-2a” (Huaya Jiyuan (Shenzhen) Pharmaceutical Co., Ltd., priority 2024, dated 2025)
# How the values were obtained:
# [1] = tested on: Unilateral ureteral obstruction (UUO)-induced mouse model; assay: Unilateral ureteral obstruction (UUO)-induced mouse model of renal injury and anemia; format: in vivo, Male Balb/c mice; conditions: for Pathological score for renal tubular injury: H&E staining, Paller score, UUO control group 4.56 ± 0.19; for Reduction in fibrosis: Masson's trichrome staining, interstitial fibrosis, UUO control group 26.0 ± 1.9%; for Urea level: serum after final treatment, UUO control group 6.26 ± 0.14
# Excerpt: Animal model establishment: Male Balb/c mice are anesthetized with isoflurane and then secured to an operating table with medical tape. After preparation of an abdominal midline incision site, the surgical part is disinfected with 75% ethanol-iodine tincture-ethanol. Subsequently, an incision is made along the linea alba of the mouse, and the incision is held open with a laparotomy retractor. The left ureter is isolated using a sterile cotton swab and curved forceps and ligated near the bladder dome using 3-0 suture. One drop of normal saline is added into the abdominal cavity, and then the abdomen is sutured. Following recovery on a heating pad, the mouse is returned to the cage, maintained under normal feeding and drinking conditions, and observed, thereby completing model establishment. For the sham-operated group, all procedures are the same as those of the model group except that no ligation is performed. For the treatment groups in the UUO model, male Balb/c mice, after a one-week acclimation period, are orally administered tafamidis (tafamidis treatment group) or roxadustat (roxadustat treatment group) by gavage for three consecutive days. The dose in the first tafamidis treatment group is 5 mg/kg/day, the dose in the second tafamidis treatment group is 10 mg/kg/day, and the dose in the roxadustat treatment group is 10 mg/kg/day. The drug administration is continued for seven days after unilateral ureteral obstruction surgery. A solvent is administered to the mice in the sham-operated group and the UUO control group based on the same dosing regimen. Serum analysis is performed after the final treatment. Serum analysis is performed using a Mindray BS-2000M automated […] analyzer with commercially available kits based on the manufacturer's instructions. After sample collection, the […] are euthanized. Statistical significance is determined by one-way analysis of variance (ANOVA), and then a Dunnett's test is performed for comparison with the UUO control group (*P < 0.05, **P < 0.01, ***P < 0.001).
# Isolated left kidney samples from mice are fixed in 4% paraformaldehyde, dehydrated, embedded in paraffin, and sectioned. The tissue sections are 4 µm thick, and are subsequently subjected to histochemical staining such as H&E staining and Masson's trichrome staining. After staining, the sections are scanned using advanced three-dimensional histological imaging technology, and high-resolution images are captured using a Pannoramic DESK/MIDI/250/1000 system. H&E staining is analyzed to evaluate renal tubular injury. 10 fields are randomly selected from each sample, and examined at a 40× magnification. The degree of renal tubular injury is assessed using a semi-quantitative scoring system (Paller score): 0 (no injury), 1 (<25% injury), 2 (25% to 50% injury), 3 (50% to 75% injury), and 4 (>75% injury). In addition, the entire tissue section is assessed at a 0.7× magnification to determine the extent of collagen fiber deposition shown by Masson's trichrome staining. Semi-quantitative analysis of the collagen fiber area is performed using Image-Pro Plus 6.0 software. Statistical significance is determined by one-way analysis of variance (ANOVA), and then a Dunnett's test is performed for comparison with the UUO control group (*P < 0.05, **P < 0.01, ***P < 0.001).
# [2] = tested on: Cisplatin-induced renal injury and anemia rat model; assay: Cisplatin-induced renal injury and anemia rat model; format: in vivo, Male Sprague-Dawley (SD) rats
# Description: Male Sprague-Dawley (SD) rats are allowed a one-week acclimation period, after which cisplatin (6 mg/kg) is administered through tail vein injection. A second injection is given one week later. Two weeks after the first administration, successful establishment of a renal disease model is confirmed by measuring serum creatinine and urea levels. The established rat model is randomly divided into four groups: a control group (n = 7), a cisplatin group (n = 6), a roxadustat group (n = 6), and a tafamidis group (n = 6). The roxadustat group and tafamidis group are orally administered the corresponding compound (roxadustat or tafamidis) at 10 mg/kg daily for four consecutive weeks. A corresponding solvent is administered to the control group and cisplatin group rat models based on the same dosing regimen. Urine samples are collected on the day following the final treatment, so as to measure UTP and UCREA. Hematological analysis is performed using a Mindray BC-5150 automated hematology analyzer, and urinalysis is performed using a Mindray BS-2000M automated biochemical analyzer, both using commercially available kits according to the manufacturers' instructions. After sample collection, the rats are euthanized. Statistical significance is determined by one-way analysis of variance (ANOVA), and then a Dunnett's test is performed for comparison with the cisplatin group (*P < 0.05, **P < 0.01, ***P < 0.001).
# Left kidney samples collected from cisplatin-induced rats are fixed in 4% paraformaldehyde, dehydrated, embedded in paraffin, and sectioned. The tissue sections are 4 µm thick, and are subsequently subjected to histochemical staining such as hematoxylin-eosin (H&E), periodic acid-Schiff (PAS), and Masson's trichrome staining. After staining, the sections are scanned using advanced three-dimensional histological imaging technology, and high-resolution images are captured using a Pannoramic DESK/MIDI/250/1000 system. To evaluate renal tubular injury, 10 fields are randomly selected from each sample, and examined at a 40× magnification. The degree of renal tubular injury is assessed using a semi-quantitative scoring system (Paller score): 0 (no injury), 1 (<25% injury), 2 (25% to 50% injury), 3 (50% to 75% injury), and 4 (>75% injury). In addition, the entire tissue section is assessed at a 0.7× magnification to determine the extent of collagen fiber deposition shown by Masson's trichrome staining. Semi-quantitative analysis of the collagen fiber area is performed using Image-Pro Plus 6.0 software (Media Cybernetics, Rockville, MD, USA). For glomerular evaluation, 20 glomeruli are randomly selected from each rat and analyzed at a 63× magnification, using mesangial matrix expansion shown by PAS staining as an indicator. Semi-quantitative analysis of the mesangial matrix is likewise performed using Image-Pro Plus 6.0 software. Statistical significance is determined by one-way analysis of variance (ANOVA), and then a Dunnett's test is performed for comparison with the cisplatin group (*P < 0.05, **P < 0.01, ***P < 0.001).
# Immunofluorescence staining is performed on 4 µm-thick kidney tissue sections. The sections are deparaffinized and rehydrated through ethanol, and then is subjected to microwave treatment in a 0.01 mol/L sodium citrate buffer (pH 6.0) for antigen retrieval. Subsequently, the sections are incubated overnight at 4 °C with a primary antibody against α-SMA (19245S, Cell Signaling Technology). After incubation, the sections is incubated at room temperature for 30 minutes with an HRP-conjugated secondary antibody (PK10009, Proteintech Group), and localization is performed using a DAB kit. After staining, the sections are scanned using advanced three-dimensional histological imaging technology, and high-resolution images are captured using a Pannoramic DESK/MIDI/250/1000 system. The entire tissue section is assessed at a 0.7× magnification to determine an α-SMA-positive region. […]
# [3] = 10 mg/kg/day oral gavage, listed as Roxadustat
# [4] = 10 mg/kg daily oral for four weeks, urine, versus cisplatin group
# [5] = 10 mg/kg daily oral for four weeks, kidney tissue
# [6] = 10 mg/kg daily oral for four weeks, urine, versus cisplatin group, p < 0.05
Compound,Pathological score for renal tubular injury ([1]; 10 mg/kg/day oral gavage),"Pathological score for renal tubular injury [1, 3]",Reduction in fibrosis ([1]; 10 mg/kg/day oral gavage) [%],"Reduction in fibrosis [1, 3]",Urea level ([1]; 10 mg/kg/day oral gavage),"Urea level [1, 3]","UTP levels [2, 4]",Gross observation: pallor of the obstructed kidney ([1]; 5 mg/kg/day oral gavage),Pathological score for renal tubular injury ([1]; 5 mg/kg/day oral gavage),Urea level ([1]; 5 mg/kg/day oral gavage),"erythropoietin (EPO) protein levels, Western blot [2, 5]","α-SMA protein expression, Western blot [2, 5]","cisplatin-induced renal injury, semi-quantitative scoring (H&E, Masson's trichrome, PAS) ([2]; 10 mg/kg daily oral for four weeks, left kidney sections)","UCREA levels [2, 6]","UTP/UCREA ratio [2, 6]","Gross observation of kidney tissues (color) ([2]; 10 mg/kg daily oral for four weeks, normal control healthy red, cisplatin group white discoloration and edema)","Red blood cells (RBCs) ([2]; 10 mg/kg daily oral, week 4, cisplatin group 6.3 ± 0.3 ×10^12, p < 0.001)","Hematocrit (HCT) ([2]; 10 mg/kg daily oral, week 4, cisplatin group 46.2 ± 1.8%, p < 0.001) [%]","Hemoglobin (HGB) ([2]; 10 mg/kg daily oral, week 4, cisplatin group 127.7 ± 4.7, p < 0.05) [g/L]"
Cc1nc(C(=O)NCC(=O)O)c(O)c2ccc(Oc3ccccc3)cc12 [roxadustat],4.78 ± 0.09,"4.78 ± 0.09, P = 0.98",21.8 ± 1.6,"21.8 ± 1.6%, P = 0.37",5.36 ± 0.10 mmol/L,"5.36 ± 0.10, P < 0.001 mmol/L",increases,–,–,–,–,–,–,–,–,–,–,–,–
"O=C(O)c1ccc2nc(-c3cc(Cl)cc(Cl)c3)oc2c1 [tafamidis, 2-(3,5-dichlorophenyl)-1,3-benzoxazole-6-carboxylic acid]","2.93 ± 0.35, P < 0.05",–,–,–,"5.28 ± 0.29, P < 0.05 mmol/L",–,little effect,significantly alleviates,"2.85 ± 0.83, P < 0.05","5.67 ± 0.23, P = 0.10 mmol/L",increasing,significantly reduces,significantly alleviates,increases,reducing,normal red color,8.1 ± 0.4 × 10^12 cells/L,58.4 ± 2.9,161.8 ± 9.3
